This passage reports inhibition results from patent US10245261B2, “Substituted indol-5-ol derivatives and their therapeutic applications” (NantBioScience, Inc., priority 2013, dated 2019).

What all share (test): KinaseProfiler kinase assay
What all share (type): biochemical

In one assay the target is Abl(h) (Homo sapiens, UniProt P00519).
The target in another assay is T1, Aurora-A(h) (Homo sapiens, UniProt O14965).
T1 sequence (O14965 1-403): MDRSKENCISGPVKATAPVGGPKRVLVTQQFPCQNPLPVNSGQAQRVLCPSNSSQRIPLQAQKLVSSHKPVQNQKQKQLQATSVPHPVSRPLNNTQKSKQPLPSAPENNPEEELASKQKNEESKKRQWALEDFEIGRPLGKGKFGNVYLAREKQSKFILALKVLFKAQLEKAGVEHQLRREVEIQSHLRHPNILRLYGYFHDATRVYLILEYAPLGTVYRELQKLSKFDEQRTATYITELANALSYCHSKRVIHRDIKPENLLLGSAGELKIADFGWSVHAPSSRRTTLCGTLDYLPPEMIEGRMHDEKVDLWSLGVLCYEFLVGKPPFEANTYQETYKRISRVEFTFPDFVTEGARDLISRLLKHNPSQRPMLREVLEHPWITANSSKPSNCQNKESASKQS
As to conditions: read-out: % Inhibition @1 μM Auroro-A. As for the experimental part:
(§1) This example tests the inhibitory properties of representative compounds of the invention in c-Src kinase, Aurora-A kinase, Flt3 kinase, Ret kinase and TrkA Kinase assays (see, Daniele Fancelli et al, J. Med. Chem., 2006, 49 (24), pp 7247-7251). The KinaseProfiler™ Service Assay Protocols (Millipore) was used to test the kinase inhibiting activity of novel compounds from this invention. To do this, the buffer composition was as: 20 mM MOPS, 1 mM EDTA, 0.01% Brij-35, 5% Glycerol, 0.1% β-mercaptoethanol, 1 mg/mL BSA. Test compounds were initially dissolved in DMSO at the desired concentration, then serially diluted to the kinase assay buffer. In a final reaction volume of 25 μL, Aurora-A(h) (5-10 mU) is incubated with 8 mM MOPS pH 7.0, 0.2 mM EDTA, 200 μM LRRASLG (Kemptide), 10 mM MgAcetate and [γ^33P-ATP]. The reaction was initiated by the addition of the MgATP mix. After incubation for 40 minute at room temperature, the reaction was stopped by addition of 5 μL of a 3% phosphoric acid solution. 10 μL of the reaction was then spotted onto a P30 filtermat and washed three times for 5 minutes in 50 mM phosphoric acid and once in methanol prior to drying and scintillation counting. Wells containing substrate but no kinase and wells containing a phosphopeptide control were used to set 0% and 100% phosphorylation value, respectively.
(§2) The Kinase Hotspot℠ kinase assay was also used to test the compounds for IC50 or % inhibitions (Reaction Biology Corp.). Inhibitory IC50 values were determined by titration of compound at the optimal kinase concentration (Kinase EC50).

The next assay concerns the target T2, Flt3(h) (Homo sapiens, UniProt P36888).
T2 sequence (P36888 27-993): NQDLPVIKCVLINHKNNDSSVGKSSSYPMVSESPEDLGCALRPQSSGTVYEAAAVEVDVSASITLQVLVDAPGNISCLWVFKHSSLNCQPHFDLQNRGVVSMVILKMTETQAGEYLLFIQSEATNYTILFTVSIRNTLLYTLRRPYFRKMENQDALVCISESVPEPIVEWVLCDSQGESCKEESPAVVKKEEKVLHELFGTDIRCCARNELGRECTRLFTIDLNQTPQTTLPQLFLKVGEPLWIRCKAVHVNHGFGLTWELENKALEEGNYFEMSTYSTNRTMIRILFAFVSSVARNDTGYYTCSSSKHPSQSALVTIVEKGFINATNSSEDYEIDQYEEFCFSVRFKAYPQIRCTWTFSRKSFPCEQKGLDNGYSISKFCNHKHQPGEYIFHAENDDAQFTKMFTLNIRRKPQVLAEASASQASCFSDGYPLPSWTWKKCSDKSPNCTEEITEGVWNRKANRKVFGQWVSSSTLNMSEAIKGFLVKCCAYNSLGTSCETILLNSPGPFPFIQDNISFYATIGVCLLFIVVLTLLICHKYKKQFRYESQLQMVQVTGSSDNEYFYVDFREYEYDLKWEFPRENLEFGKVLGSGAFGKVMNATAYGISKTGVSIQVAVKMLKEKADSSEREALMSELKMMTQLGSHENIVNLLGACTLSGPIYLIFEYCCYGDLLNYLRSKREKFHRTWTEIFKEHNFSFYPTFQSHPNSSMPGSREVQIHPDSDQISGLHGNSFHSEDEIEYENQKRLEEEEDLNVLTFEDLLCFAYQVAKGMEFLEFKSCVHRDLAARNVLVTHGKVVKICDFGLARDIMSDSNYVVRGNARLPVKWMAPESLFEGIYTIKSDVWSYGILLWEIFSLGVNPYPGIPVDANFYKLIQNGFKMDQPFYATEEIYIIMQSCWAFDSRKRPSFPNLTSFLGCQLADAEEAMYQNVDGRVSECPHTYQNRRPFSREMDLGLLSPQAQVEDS
As for the experimental part:
as §1, §2

The target of a further assay is Ret(h) (Homo sapiens, UniProt P07949). On the procedure:
as §1, §2

A further assay has as its target cSRC(h) (Homo sapiens, UniProt P12931). On the procedure:
as §1, §2

The target of another assay is KDR(h) (Homo sapiens, UniProt P35968).
Sequence of KDR(h) (P35968 20-1356): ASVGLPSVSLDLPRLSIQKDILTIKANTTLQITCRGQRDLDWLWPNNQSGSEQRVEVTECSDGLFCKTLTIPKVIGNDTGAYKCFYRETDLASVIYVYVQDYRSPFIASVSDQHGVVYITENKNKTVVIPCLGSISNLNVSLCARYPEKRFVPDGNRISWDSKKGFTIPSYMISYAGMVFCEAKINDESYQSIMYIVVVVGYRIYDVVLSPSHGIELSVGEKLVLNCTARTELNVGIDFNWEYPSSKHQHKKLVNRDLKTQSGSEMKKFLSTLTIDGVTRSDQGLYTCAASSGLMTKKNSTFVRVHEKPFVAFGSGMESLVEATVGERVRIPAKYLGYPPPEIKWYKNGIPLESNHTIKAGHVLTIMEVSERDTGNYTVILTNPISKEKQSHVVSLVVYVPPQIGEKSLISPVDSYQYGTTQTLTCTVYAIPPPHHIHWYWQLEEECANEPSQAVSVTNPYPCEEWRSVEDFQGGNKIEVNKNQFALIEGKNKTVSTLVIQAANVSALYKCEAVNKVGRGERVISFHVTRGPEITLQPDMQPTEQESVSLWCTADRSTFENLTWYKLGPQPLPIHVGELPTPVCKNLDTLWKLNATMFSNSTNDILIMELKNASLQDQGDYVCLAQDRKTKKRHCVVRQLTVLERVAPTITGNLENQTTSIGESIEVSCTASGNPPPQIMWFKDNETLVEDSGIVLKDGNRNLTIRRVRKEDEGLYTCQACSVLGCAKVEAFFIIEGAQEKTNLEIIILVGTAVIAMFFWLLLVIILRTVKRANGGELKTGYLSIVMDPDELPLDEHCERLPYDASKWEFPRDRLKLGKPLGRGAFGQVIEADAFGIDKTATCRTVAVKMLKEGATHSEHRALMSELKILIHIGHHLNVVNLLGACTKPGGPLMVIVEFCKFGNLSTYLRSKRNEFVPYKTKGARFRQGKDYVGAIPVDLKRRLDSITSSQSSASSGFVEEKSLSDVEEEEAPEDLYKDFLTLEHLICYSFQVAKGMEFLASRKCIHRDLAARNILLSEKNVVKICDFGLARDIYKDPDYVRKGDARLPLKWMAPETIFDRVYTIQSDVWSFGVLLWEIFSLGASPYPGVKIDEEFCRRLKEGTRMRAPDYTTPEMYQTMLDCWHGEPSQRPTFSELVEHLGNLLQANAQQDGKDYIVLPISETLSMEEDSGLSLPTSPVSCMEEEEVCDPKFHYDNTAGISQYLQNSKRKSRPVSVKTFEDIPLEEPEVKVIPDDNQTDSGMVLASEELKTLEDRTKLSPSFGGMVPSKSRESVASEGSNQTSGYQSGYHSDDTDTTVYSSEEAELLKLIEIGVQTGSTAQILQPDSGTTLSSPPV

Sequence of cSRC(h) (P12931 whole entry): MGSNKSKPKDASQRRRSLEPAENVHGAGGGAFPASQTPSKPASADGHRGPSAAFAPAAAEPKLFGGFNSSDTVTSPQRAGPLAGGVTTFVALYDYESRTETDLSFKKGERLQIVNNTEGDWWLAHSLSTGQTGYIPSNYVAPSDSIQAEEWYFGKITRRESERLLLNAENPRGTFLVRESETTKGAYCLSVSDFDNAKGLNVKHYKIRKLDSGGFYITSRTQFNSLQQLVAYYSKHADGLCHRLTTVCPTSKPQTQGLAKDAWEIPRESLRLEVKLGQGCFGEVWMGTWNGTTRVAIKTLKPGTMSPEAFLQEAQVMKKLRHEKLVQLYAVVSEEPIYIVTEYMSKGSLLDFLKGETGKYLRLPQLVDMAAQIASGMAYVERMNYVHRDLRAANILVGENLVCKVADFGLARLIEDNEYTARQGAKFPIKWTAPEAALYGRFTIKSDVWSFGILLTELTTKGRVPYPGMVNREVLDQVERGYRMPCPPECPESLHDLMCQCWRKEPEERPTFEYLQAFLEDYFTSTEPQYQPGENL
Sequence of Ret(h) (P07949 29-1114): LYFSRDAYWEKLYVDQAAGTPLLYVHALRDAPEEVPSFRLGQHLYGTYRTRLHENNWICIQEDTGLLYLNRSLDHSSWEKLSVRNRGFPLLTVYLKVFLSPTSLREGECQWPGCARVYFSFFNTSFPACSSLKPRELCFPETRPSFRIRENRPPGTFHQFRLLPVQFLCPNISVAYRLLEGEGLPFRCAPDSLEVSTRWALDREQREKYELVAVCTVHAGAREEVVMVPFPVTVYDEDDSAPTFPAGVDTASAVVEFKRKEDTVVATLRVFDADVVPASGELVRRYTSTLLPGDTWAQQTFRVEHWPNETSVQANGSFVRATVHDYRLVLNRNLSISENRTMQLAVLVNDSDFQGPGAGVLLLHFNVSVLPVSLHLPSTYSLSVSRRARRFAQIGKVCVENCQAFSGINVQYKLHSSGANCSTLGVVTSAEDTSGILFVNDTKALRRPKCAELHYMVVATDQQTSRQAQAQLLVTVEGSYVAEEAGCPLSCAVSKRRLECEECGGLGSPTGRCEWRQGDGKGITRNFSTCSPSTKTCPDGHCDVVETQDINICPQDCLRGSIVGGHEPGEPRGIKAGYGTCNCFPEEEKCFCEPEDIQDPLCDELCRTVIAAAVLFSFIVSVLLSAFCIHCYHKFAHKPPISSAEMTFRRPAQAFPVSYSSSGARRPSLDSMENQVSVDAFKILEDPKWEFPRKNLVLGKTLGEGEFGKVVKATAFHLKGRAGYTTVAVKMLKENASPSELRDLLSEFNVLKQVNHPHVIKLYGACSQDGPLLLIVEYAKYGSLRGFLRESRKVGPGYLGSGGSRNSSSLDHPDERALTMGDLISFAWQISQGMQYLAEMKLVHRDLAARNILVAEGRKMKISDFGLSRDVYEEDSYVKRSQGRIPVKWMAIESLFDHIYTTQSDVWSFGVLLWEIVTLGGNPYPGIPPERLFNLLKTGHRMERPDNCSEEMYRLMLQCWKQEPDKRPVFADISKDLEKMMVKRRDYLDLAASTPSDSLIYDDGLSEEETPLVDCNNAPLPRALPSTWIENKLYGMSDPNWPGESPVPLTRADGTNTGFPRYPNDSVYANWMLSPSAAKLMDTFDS
Sequence of Abl(h) (P00519 whole entry): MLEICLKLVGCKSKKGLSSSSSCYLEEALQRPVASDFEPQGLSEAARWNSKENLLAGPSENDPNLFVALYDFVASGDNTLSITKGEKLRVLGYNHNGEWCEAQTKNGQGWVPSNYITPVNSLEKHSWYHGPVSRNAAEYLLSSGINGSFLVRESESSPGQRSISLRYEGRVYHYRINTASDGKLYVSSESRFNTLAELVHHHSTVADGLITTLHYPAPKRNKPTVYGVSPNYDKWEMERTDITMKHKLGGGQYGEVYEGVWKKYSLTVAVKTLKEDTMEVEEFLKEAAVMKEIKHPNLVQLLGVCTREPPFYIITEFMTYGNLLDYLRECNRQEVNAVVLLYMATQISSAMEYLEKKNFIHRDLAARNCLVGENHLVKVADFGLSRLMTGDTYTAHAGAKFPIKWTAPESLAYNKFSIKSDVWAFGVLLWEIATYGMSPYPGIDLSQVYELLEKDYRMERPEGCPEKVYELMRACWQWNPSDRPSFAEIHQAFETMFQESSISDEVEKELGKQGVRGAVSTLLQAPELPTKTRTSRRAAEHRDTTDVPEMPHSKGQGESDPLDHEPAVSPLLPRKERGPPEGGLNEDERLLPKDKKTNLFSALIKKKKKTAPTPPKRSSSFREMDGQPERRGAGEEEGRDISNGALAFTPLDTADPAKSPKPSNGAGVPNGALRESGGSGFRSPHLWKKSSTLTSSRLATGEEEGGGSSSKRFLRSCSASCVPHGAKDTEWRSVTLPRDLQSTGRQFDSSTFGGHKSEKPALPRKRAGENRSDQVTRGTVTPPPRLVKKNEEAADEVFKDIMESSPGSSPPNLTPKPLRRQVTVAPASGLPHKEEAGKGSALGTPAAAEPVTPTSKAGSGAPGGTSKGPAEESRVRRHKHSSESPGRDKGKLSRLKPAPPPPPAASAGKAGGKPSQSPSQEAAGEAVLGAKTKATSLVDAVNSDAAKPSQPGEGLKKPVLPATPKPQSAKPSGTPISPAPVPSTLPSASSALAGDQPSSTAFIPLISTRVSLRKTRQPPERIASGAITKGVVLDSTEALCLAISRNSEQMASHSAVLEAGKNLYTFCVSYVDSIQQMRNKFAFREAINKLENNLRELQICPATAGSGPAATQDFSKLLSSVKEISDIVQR

With `Cc1cc2c(F)c(Oc3nc(Nc4cc(C5CC5)[nH]n4)cc(N4CCOC(CN)C4)n3)ccc2[nH]1` (stereo not drawn) [Compound 39], the inhibition at 1 µM on Abl(h) was determined as 110%; on Aurora-A(h) it was 98%; on Flt3(h), 98%; against Ret(h), 101%; at cSRC(h), 97%; against KDR(h), 95%.

`CCC1CN(c2cc(Nc3cc(C4CC4)[nH]n3)nc(Oc3ccc4[nH]c(C)cc4c3F)n2)CCN1` (stereo not drawn) [Compound 41]: the inhibition at 1 µM against Abl(h) was found to be 108%; on Aurora-A(h), 87%; against Flt3(h), 99%; on Ret(h), 101%; against cSRC(h), 97%; against KDR(h), 94%.

Turning to `Cc1cc2c(F)c(Oc3nc(Nc4cc(C5CC5)[nH]n4)cc(N4CCN(CCN(C)C)CC4)n3)ccc2[nH]1` [Compound 42], the inhibition at 1 µM against Abl(h) came to 110%; at Aurora-A(h), 93%; on Flt3(h) it was 100%; on Ret(h), 102%; against cSRC(h), 101%; on KDR(h), 96%.

For `Cc1cc2c(F)c(Oc3nc(Nc4cc(C5CC5)[nH]n4)cc(N4CCNC(CO)C4)n3)ccc2[nH]1` (stereo not drawn) [Compound 43], the inhibition at 1 µM on Abl(h) stood at 111%; at Aurora-A(h), 87%; on Flt3(h), 99%; against Ret(h), 102%; against cSRC(h) it was 101%; on KDR(h), 95%.

On to `COCC1CCN(c2cc(Nc3cc(C4CC4)[nH]n3)nc(Oc3ccc4[nH]c(C)cc4c3F)n2)C1` (stereo not drawn) [Compound 44], for which the inhibition at 1 µM turned out to be 94% against Abl(h); 97% on Aurora-A(h); 100% at Flt3(h); 100% at Ret(h); 102% against cSRC(h); 90% against KDR(h).

Turning to `Cc1cc2c(F)c(Oc3nc(Nc4cc(C5CC5)[nH]n4)cc(N4CCN(CCF)CC4)n3)ccc2[nH]1` [Compound 45], the inhibition at 1 µM at Abl(h) is 107%; on Aurora-A(h) it was 99%; against Flt3(h), 101%; against Ret(h), 102%; against cSRC(h) it was 107%; against KDR(h), 95%.

For `C/C=C/c1cc(Nc2cc(N3CCN(CCOC)CC3)nc(Oc3ccc4[nH]c(C)cc4c3F)n2)n[nH]1` [Compound 54], the inhibition at 1 µM on Abl(h) is 108%; at Aurora-A(h), 85%; against Flt3(h) it was 99%; against Ret(h) it was 100%; against cSRC(h), 99%; against KDR(h), 96%.

Consider `C/C=C/c1cc(Nc2cc(N3CCN(S(C)(=O)=O)CC3)nc(Oc3ccc4[nH]c(C)cc4c3F)n2)n[nH]1` [Compound 55], for which the inhibition at 1 µM against Abl(h) turned out to be 110%; at Aurora-A(h) it was 101%; against Flt3(h), 99%; against Ret(h), 101%; at cSRC(h), 101%; at KDR(h) it was 96%.

Turning to `C/C=C/c1cc(Nc2cc(N3CCN(C(C)=O)CC3)nc(Oc3ccc4[nH]c(C)cc4c3F)n2)n[nH]1` [Compound 56], the inhibition at 1 µM against Abl(h) was 111%; on Aurora-A(h), 99%; at Flt3(h) it was 99%; against Ret(h), 101%; against cSRC(h), 100%; against KDR(h), 96%.

For `C/C=C/c1cc(Nc2cc(N3CCS(=O)(=O)CC3)nc(Oc3ccc4[nH]c(C)cc4c3F)n2)n[nH]1` [Compound 57], the inhibition at 1 µM at Abl(h) is 111%; on Aurora-A(h) it was 96%; against Flt3(h), 100%; on Ret(h), 102%; against cSRC(h), 99%; against KDR(h) it was 95%.

As to `C/C=C/c1cc(Nc2cc(N3CCC(OC)CC3)nc(Oc3ccc4[nH]c(C)cc4c3F)n2)n[nH]1` [Compound 58], the inhibition at 1 µM on Abl(h) was found to be 112%; on Aurora-A(h) it was 90%; at Flt3(h) it was 99%; against Ret(h) it was 102%; against cSRC(h), 101%; at KDR(h), 96%.

Consider `C/C=C/c1cc(Nc2cc(N3CCC(O)CC3)nc(Oc3ccc4[nH]c(C)cc4c3F)n2)n[nH]1` [Compound 59], for which the inhibition at 1 µM was determined as 112% on Abl(h); 94% at Aurora-A(h); 99% on Flt3(h); 102% against Ret(h); 100% on cSRC(h); 96% at KDR(h).

For `C/C=C/c1cc(Nc2cc(N3CCC(OC)C3)nc(Oc3ccc4[nH]c(C)cc4c3F)n2)n[nH]1` (stereo not drawn) [Compound 60], the inhibition at 1 µM against Abl(h) was determined as 111%; at Aurora-A(h), 97%; at Flt3(h) it was 99%; against Ret(h), 102%; against cSRC(h), 101%; against KDR(h), 95%.

On to `C/C=C/c1cc(Nc2cc(N3CCC(O)C3)nc(Oc3ccc4[nH]c(C)cc4c3F)n2)n[nH]1` (stereo not drawn) [Compound 61], for which the inhibition at 1 µM worked out at 112% on Abl(h); 95% at Aurora-A(h); 100% on Flt3(h); 102% at Ret(h); 100% on cSRC(h); 97% at KDR(h).

Consider `C/C=C/c1cc(Nc2cc(N3CCC(N(CC)CC)C3)nc(Oc3ccc4[nH]c(C)cc4c3F)n2)n[nH]1` (stereo not drawn) [Compound 62], for which the inhibition at 1 µM against Abl(h) worked out at 111%; at Aurora-A(h), 102%; on Flt3(h), 99%; against Ret(h), 102%; on cSRC(h) it was 101%; against KDR(h), 96%.

As for `C/C=C/c1cc(Nc2cc(N3CCOCC3)nc(Oc3ccc4[nH]c(C)cc4c3F)n2)n[nH]1` [Compound 67], the inhibition at 1 µM came out at 112% against Abl(h); 99% on Aurora-A(h); 100% on Flt3(h); 100% at Ret(h); 99% against cSRC(h); 91% on KDR(h).

On to `C/C=C/c1cc(Nc2cc(N3CCN(CCF)CC3)nc(Oc3ccc4[nH]c(C)cc4c3F)n2)n[nH]1` [Compound 74], for which the inhibition at 1 µM worked out at 111% against Abl(h); 99% at Aurora-A(h); 100% at Flt3(h); 102% on Ret(h); 100% on cSRC(h); 96% on KDR(h).

Broadly, the inhibition is the drop in the measured response relative to a control, in per cent.
